The values that follow come from US11331319B2, “Combination treatment for neuropsychiatric disorders” (UNIVERSITY OF MASSACHUSETTS, priority 2017, dated 2022).

Series [1] relates to N-methyl-D-aspartate receptor (NMDAR). The settings on record: cited from earlier work; for Finding: schizophrenia treatment; for Limitation: efficacy / Limitation: toxicity / therapeutic window: Table 3.
Series [2] has as its system young adults with uncomplicated type 1 diabetes. The conditions noted are these: 7000 mg per day, one week; cited from earlier work.
The conditions of series [3]: over-the-counter nutrition supplement; cited from earlier work.
Series [4] deals with patients with schizophrenia. Put plainly: 16-week adjunctive minocycline clinical trial: SANS and PANSS. It counts as in vivo, human. The settings on record: minocycline 200 mg per day added to risperidone, N = 27, week 16 value minus baseline value, mean. The text has this: Adult patients with schizophrenia were recruited from the 1st Affiliated Hospital of Kunming Medical University, and the Mental Health Center of Yunnan Province, China, between June 2010 and November 2011. The diagnosis of schizophrenia was made by trained clinical interviewers using the structured clinical interview for DSM-IV diagnosis (SCID). First et al., In: Structured Clinical interview for DSM-IV Axis I Disorders-Clinician Version (SCID-CV). Washington, D.C.: American Psychiatry Press. (1996). Other inclusion criteria included: (1) age 18 to 40 years old; (2) disease duration ≤5 years; (3) on stable dose of risperidone for at least 4 weeks prior to screening; (4) a stable living arrangement. Exclusion criteria were: (1) being allergic to minocycline or tetracycline; (2) a psychiatric diagnosis other than schizophrenia (determined by SCID); (3) serious, unstable medical conditions; (4) diagnosis of diabetes mellitus; (4) female patients who were planning to become pregnant, or were pregnant or lactating were also excluded from the study. The study was approved by the ethics committee of the 1st Affiliated Hospital of Kunming Medical University.
(§1) After screening, each eligible subject underwent baseline assessments including the Scale for the Assessment of Negative Symptoms (SANS), the Positive and Negative Syndrome Scale (PANSS), and blood draw for lab tests. Andreasen N C., “Negative symptoms in schizophrenia: Definition and reliability” Arch. Gen. Psychiatry 39:784-788 (1982); and Kay et al., “The positive and negative syndrome scale (PANSS) for schizophrenia” Schizophr. Bull. 13:261-276 (1987). Subjects continued to take risperidone at the same dose throughout the study, and were randomized in a 1:1 ratio to receive either minocycline (200 mg per day) or placebo for 16 weeks. At week 16, baseline assessments were repeated.
Statistical analysis was performed using SPSS (version 24.0, IBM Corp, Armonk, N.Y.). Descriptive statistics were performed to summarize demographic and clinical characteristics of the study sample. Group comparisons were performed using the independent t test for continuous variables, and the Fisher exact test or Chi-square test for categorical variables. Analysis of covariance (ANCOVA) was used to compare change scores from baseline to week 16 between the two treatment groups controlling for baseline scores and potential confounding variables. For all analyses, a p value less than 0.05 (2-tailed) was used for statistical significance.

Series [5] concerns NO metabolites (nitrites and nitrates). Put plainly: Plasma levels of NO metabolites, Griess method (minocycline trial). It is filed as in vivo, human. The settings on record: minocycline 200 mg per day, N = 27, fasting plasma, week 16 value minus baseline value, mean.
Text: as §1
(§2) Anthropometric measures included weight, height and body mass index (BMI). Blood samples were obtained 11 h (±1 h) after the completion of the last meal the night before. Subjects were allowed to drink water during the fasting period. Laboratory assays for plasma levels of TNFα, and IL-1β were performed using the enzyme-linked immunosorbent assay (ELISA) (Bender Med Systems GmbH Campus Vienna Biocenter 2 A-1030 Vienna, Austria, Europe). Plasma levels of NO metabolites (nitrites and nitrates) were measured using the Griess method (Cortas & Wakid 1990) (Nanjing Jiancheng Bioengineering Institute, China).
(§3) Statistical analysis was performed using SPSS (version 24.0, IBM Corp, Armonk, N.Y.). […]

Series [6] has as its system IL-1β. Put plainly: Plasma IL-1β by ELISA (minocycline trial). The settings on record: minocycline 200 mg per day, N = 27; fasting plasma; week 16 value minus baseline value; mean; listed as Minocycline. It is filed as in vivo, human.
Text: as §1, §2, §3

The test system of series [7] is TNFα. Kind of series: Plasma TNFα by ELISA (minocycline trial). It is filed as in vivo, human. The settings on record: minocycline 200 mg per day, N = 27; fasting plasma; week 16 value minus baseline value; mean; listed as Minocycline.
Text: as §1, §2, §3

A short description of series [8]: Body mass index (minocycline trial). It is filed as in vivo, human. The settings on record: minocycline 200 mg per day, N = 27; week 16 value minus baseline value; mean.
Text: as §1, §2, §3

The conditions of series [9]: cited from earlier work.
The conditions of series [10]: underlying neurologic disorders, co-administration of levodopa and sapropterin; cited from earlier work.

Consider `C[C@@H](N)C(=O)O` [D-Alanine], for which the Finding entry in [1] is “Improvement in overall”.
In the case of `N[C@@H]1CONC1=O` [D-Cycloserine], in series [1], the “Limitation: efficacy” value is “Decrease in efficacy over time”, the “Limitation: toxicity / therapeutic window” value is on record as “Very narrow therapeutic window” and the Finding entry is recorded as “Inconsistent finding; improvement”.
For the compound `N[C@H](CO)C(=O)O` [D-Serine], in series [1], the “Limitation: toxicity / therapeutic window” value was “Nephrotoxicity” and the Finding result was “Improvement in overall”.
On to `NCC(=O)O` [Glycine], for which, in series [1], the “Limitation: efficacy” value was “High doses required to reach therapeutic effects” and the Finding entry is “Improvement in overall”.
With `N=C(N)NCCC[C@H](N)C(=O)O` [L-arginine], in series [2], the “Effect of supplementation” value is “improved oxidative stress status, increased blood flow and exercise responses”. Further, the Safety and tolerability entry in series [3] is “considered safe and well tolerated in general”.
Consider `CCCCCNCC(N)=O` [Milacemide], for which the Finding entry in series [1] is “No significant clinical benefit”.
For `CNCC(=O)O` [Sarcosine], the Finding result in [1] is “Improvment in overall”.
As for `CN(C)c1ccc(O)c2c1C[C@H]1C[C@H]3[C@H](N(C)C)C(O)=C(C(N)=O)C(=O)[C@@]3(O)C(O)=C1C2=O` [minocycline], in series [4], the “PANSS general psychopathology score, week 16 change” value is −14.5; the “PANSS negative symptom score, week 16 change” value is recorded as −10.8±5.9; the “PANSS positive symptom score, week 16 change” value is −8.5; the “PANSS total score, week 16 change” value is recorded as −32.9±17.1. In addition, in [4], the “SANS total score, week 16 change” value was −31.2±25.5. Further, in series [4] (listed as Minocycline), the “PANSS negative symptom score, week 16 change” value is −10.8; the “PANSS total score, week 16 change” value was −32.9; the “SANS total score, week 16 change” value was −31.2. Further, the “Nitric oxide (plasma levels of NO metabolites), week 16 change” value in series [5] is -8.19 ± 18.09 µmol/L. In [5] (listed as Minocycline), the “Nitric oxide (plasma levels of NO metabolites), week 16 change” value is -8.19 µmol/L. Moreover, the “IL-1β plasma level, week 16 change” value in series [6] was -0.99 pg/mL. The “TNF-α plasma level, week 16 change” value in series [7] was -0.97 pg/mL. Moreover, the “BMI, week 16 change” value in [8] worked out at 1.98 kg/m^2. The Tolerability entry in series [9] (in humans) is “well tolerated in humans”. Moreover, in [9] (in vivo, po), the Oral bioavailability result is “high oral bioavailability”.
Regarding `C[C@H](O)[C@H](O)[C@H]1CNc2nc(N)[nH]c(=O)c2N1` [sapropterin], the “Patients who experienced confusions, exacerbation of convulsions, over-stimulation, or irritability” value in [10] is on record as 3 patients.
